Data set [1] concerns Kasumi-1 cells. In words: Kasumi-1 xenograft model in SCID mice. The class given is in vivo. Here is the method:
Figure 5. […] (A) and (B) Plots of tumor volume (A) and body weight (B). (C) and (D) Tumor size (C) and body weight (D) at sacrifice after 3 weeks of treatment. DOI: http://dx.doi.org/10.7554/eLife.11156.012
Severe combined immunodeficiency (SCID) mice were injected with 30 million Kasumi-1 cells in 100 μl of PBS and 100 μl of Matrigel. […] Tumor volume and body weight were recorded every 2 days. After 3 weeks of treatment, the mice were killed and tumor size and body weight were recorded. All mice were maintained according to National Institutes of Health guidelines and all animal use protocols were approved by the Institutional Animal Care and Use Committee.

In data set [2] the target is T1, p300 HAT domain (residues 1279–1666, Tyr1467Phe) (Homo sapiens, UniProt Q09472, Y1467F).
T1 construct: 6-His (N, cleaved yes); made in house; host or cells: E. coli BL21 (DE3)
T1 sequence (Q09472 1279-1666 Y1467F): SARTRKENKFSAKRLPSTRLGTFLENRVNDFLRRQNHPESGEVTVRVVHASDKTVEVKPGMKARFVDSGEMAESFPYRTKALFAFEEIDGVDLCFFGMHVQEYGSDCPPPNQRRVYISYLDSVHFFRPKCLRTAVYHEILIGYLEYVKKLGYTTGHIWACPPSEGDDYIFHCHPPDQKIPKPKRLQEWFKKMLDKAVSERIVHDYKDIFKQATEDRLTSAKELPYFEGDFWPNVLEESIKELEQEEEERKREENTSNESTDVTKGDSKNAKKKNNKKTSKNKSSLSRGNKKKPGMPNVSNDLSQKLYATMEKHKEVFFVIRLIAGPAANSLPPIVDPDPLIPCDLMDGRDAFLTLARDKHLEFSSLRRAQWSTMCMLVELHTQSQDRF
Kind of data set: Thermal stability assay (SYPRO orange). It is filed as binding. To be noted: p300/acetyl-CoA without salicylate 48.6°C. Here is the method: To confirm that salicylate binds to p300, we used thermal stability assays. A p300 HAT domain construct (residues 1279–1666) bearing an inactivating Tyr1467Phe mutation to facilitate purification of homogeneously hypoacetylated p300 was expressed and purified with an N-terminal 6-His tag from E. coli cells. The protein was further purified by chromatography and incubated with increasing concentrations of sodium salicylate for 30 min and with SYPRO orange dye (Invitrogen). Thermal melt curves were obtained by heating the protein from 20–95°C and monitoring fluorescence at 590 nm.
A thermal stability assay was used to assess the binding of salicylate to the p300 HAT domain. A p300 HAT domain construct (residues 1279–1666) bearing an inactivating Tyr1467Phe mutation to facilitate purification of homogeneously hypoacetyalted p300 was cloned into a pET-DUET vector with an N-terminal 6-His tag and expressed in BL21 (DE3) E. coli cells. […]
The final concentration of p300 was 2 μM in reaction buffer (0.1 M HEPES, pH 7.5, 150 mM NaCl, and 5 mM -mercaptoethanol). […] Thermal melt curves were obtained by heating the protein from 20–95°C and monitoring fluorescence at 590 nm with a 7900HT Fast Real Time PCR System (Applied Biosystems). […]

For data set [3], the target named is T2, PCAF (Homo sapiens, UniProt Q92831).
T2 construct: purchased Enzo Life Sciences
Kind of data set: In vitro HAT assay with recombinant PCAF, histones and 14C acetyl-CoA. It is filed as biochemical. Here is the method: To determine whether salicylate inhibits p300 and other acetyltransferases, we used in vitro acetylation assays with purified histones and a recombinant p300 catalytic domain.
Figure 1. Salicylate inhibits CBP/p300 in vitro. (A) Recombinant p300, CBP, GCN5, or PCAF and histones were incubated with ^14C-labeled acetyl-CoA with or without sodium salicylate, separated by SDS-PAGE, analyzed by autoradiography, and quantified with Image J software. Acetylation levels are relative to those in untreated controls. (B) Thermal stability assay for sodium salicylate binding to the p300 HAT domain. Tm, melting temperature. […] Histone acetylation was measured with several concentrations of acetyl-CoA (C) or histone (D) in the presence or absence of sodium salicylate. […] Acetylation of an H4(3–14) peptide was monitored using direct microfluidic mobility shift analysis as previously described ([Montgomery et al., 2014]; [Fanslau et al., 2010]). […]
Recombinant HAT ([…]), either p300, CBP, PCAF, or GCN5 (Enzo Life Sciences), and 10 µg of histones (Sigma) were incubated with sodium salicylate (Sigma) in reaction buffer (50 mM HEPES, pH 8.0, 10% glycerol, 1 mM) at 30°C for 30 min and then with 0.1 mCi of ^14C acetyl-CoA at 30°C for 60 min. Reactions were stopped by adding 6x sample buffer and analyzed by SDS-PAGE. […]

For data set [4], the system named is acetyl NF-κBK310. In words: Acetylation of overexpressed NF-κB p65 in HEK293T cells, Western blot. The class given is cell-based. To be noted: HEK293T transfected with p300 and NF-κB p65, 24 hr.
Source text: Figure 2.

Where [5] appears, read: 50 or 100 mg/kg orally, daily, 3 weeks.

This note sets out measurements from PMC4931907 (eLife, 2016).

T2 sequence (Q92831 whole entry, species assumed): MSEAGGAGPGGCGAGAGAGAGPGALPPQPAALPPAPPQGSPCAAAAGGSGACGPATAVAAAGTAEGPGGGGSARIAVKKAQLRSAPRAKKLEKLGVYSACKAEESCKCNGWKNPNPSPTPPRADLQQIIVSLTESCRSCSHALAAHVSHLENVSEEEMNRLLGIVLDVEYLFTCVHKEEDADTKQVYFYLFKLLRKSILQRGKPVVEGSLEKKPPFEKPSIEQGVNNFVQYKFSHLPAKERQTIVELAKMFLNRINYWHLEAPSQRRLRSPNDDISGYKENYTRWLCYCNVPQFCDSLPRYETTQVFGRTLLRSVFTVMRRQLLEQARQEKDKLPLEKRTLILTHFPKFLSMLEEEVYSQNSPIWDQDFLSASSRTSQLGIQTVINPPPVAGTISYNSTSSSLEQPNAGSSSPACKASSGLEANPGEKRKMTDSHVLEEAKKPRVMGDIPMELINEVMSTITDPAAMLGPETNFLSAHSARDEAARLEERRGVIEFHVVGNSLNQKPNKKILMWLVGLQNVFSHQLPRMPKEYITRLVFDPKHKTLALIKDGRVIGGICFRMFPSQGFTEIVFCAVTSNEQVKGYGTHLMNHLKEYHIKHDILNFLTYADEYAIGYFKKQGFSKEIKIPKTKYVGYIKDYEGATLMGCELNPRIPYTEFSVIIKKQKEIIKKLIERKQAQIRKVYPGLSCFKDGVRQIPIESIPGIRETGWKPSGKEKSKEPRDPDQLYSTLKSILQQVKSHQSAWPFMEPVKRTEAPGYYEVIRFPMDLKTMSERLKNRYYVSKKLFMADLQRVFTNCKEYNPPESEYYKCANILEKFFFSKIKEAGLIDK

As to `O=C(O)c1cc(-c2ccc(F)cc2F)ccc1O` [diflunisal], in data set [1] (setting [5]), the “Effect on body weight” value was “minimal effects on body weight” and the Tumor volume result is on record as “reduced tumor volumes in a dose-dependent manner”. The “Tumor size versus vehicle-treated controls” value in data set [1] (after 3 weeks of treatment) is “significantly smaller”. The Tumors at sacrifice entry in data set [1] (higher dose (100 mg/kg), after 3 weeks of treatment) was “most of the tumors had disappeared”.
Turning to `O=C(O)c1ccccc1O` [salicylate, salicylic acid], the “Thermal unfolding temperature of p300 HAT domain” value in data set [2] (10 mM salicylate) is 46.1 °C; in data set [2] (25 mM salicylate), 40.8 °C. For the same compound, the “Inhibition of PCAF acetyltransferase” value in data set [3] is “did not detectably inhibit”. The “Acetylation of NF-κB p65 K310” value in data set [4] is listed as “decreased acetylation”.
